Data: the NIST ThermoML archive (doi:10.1021/je600554h)
± gives the expanded uncertainty stated by the source.

Assay: xn = mol fraction of the nth substance listed
Conditions: 100 kPa, Liquid; for viscosity: Capillary tube (Ostwald / Ubbelohde) method

COC(C)(C)C [2-methoxy-2-methylpropane] + CCCCCCCC
Conditions | mass density [kg/m3] | viscosity [mPa·s]
273.15 K, x1 = 0.1019 | – | 0.685 ± 0.009
273.15 K, x1 = 0.1059 | 721.15 ± 0.6 | –
273.15 K, x1 = 0.2123 | 724.203 ± 0.59 | –
273.15 K, x1 = 0.2189 | – | 0.651 ± 0.009
273.15 K, x1 = 0.3019 | 727.065 ± 0.58 | –
273.15 K, x1 = 0.3026 | – | 0.622 ± 0.009
273.15 K, x1 = 0.4029 | – | 0.597 ± 0.009
273.15 K, x1 = 0.4099 | 730.835 ± 0.58 | –
273.15 K, x1 = 0.4995 | – | 0.57 ± 0.009
273.15 K, x1 = 0.5053 | 734.583 ± 0.57 | –
273.15 K, x1 = 0.6005 | 738.614 ± 0.57 | –
273.15 K, x1 = 0.6099 | – | 0.549 ± 0.009
273.15 K, x1 = 0.6934 | 742.992 ± 0.57 | –
273.15 K, x1 = 0.7072 | – | 0.525 ± 0.009
273.15 K, x1 = 0.7967 | 748.318 ± 0.57 | –
273.15 K, x1 = 0.7981 | – | 0.494 ± 0.009
273.15 K, x1 = 0.8941 | – | 0.472 ± 0.009
273.15 K, x1 = 0.8975 | 754.329 ± 0.56 | –
278.15 K, x1 = 0.1019 | – | 0.638 ± 0.009
278.15 K, x1 = 0.1059 | 717.106 ± 0.6 | –
278.15 K, x1 = 0.2123 | 720.082 ± 0.59 | –
278.15 K, x1 = 0.2189 | – | 0.607 ± 0.009
278.15 K, x1 = 0.3019 | 722.866 ± 0.59 | –
278.15 K, x1 = 0.3026 | – | 0.583 ± 0.009
278.15 K, x1 = 0.4029 | – | 0.559 ± 0.009
278.15 K, x1 = 0.4099 | 726.533 ± 0.58 | –
278.15 K, x1 = 0.4995 | – | 0.534 ± 0.009
278.15 K, x1 = 0.5053 | 730.183 ± 0.58 | –
278.15 K, x1 = 0.6005 | 734.106 ± 0.57 | –
278.15 K, x1 = 0.6099 | – | 0.514 ± 0.009
278.15 K, x1 = 0.6934 | 738.371 ± 0.57 | –
278.15 K, x1 = 0.7072 | – | 0.492 ± 0.009
278.15 K, x1 = 0.7967 | 743.56 ± 0.57 | –
278.15 K, x1 = 0.7981 | – | 0.462 ± 0.009
278.15 K, x1 = 0.8941 | – | 0.442 ± 0.009
278.15 K, x1 = 0.8975 | 749.42 ± 0.57 | –
283.15 K, x1 = 0.1019 | – | 0.597 ± 0.009
283.15 K, x1 = 0.1059 | 713.046 ± 0.61 | –
283.15 K, x1 = 0.2123 | 715.938 ± 0.6 | –
283.15 K, x1 = 0.2189 | – | 0.568 ± 0.009
283.15 K, x1 = 0.3019 | 718.644 ± 0.59 | –
283.15 K, x1 = 0.3026 | – | 0.545 ± 0.009
283.15 K, x1 = 0.4029 | – | 0.523 ± 0.009
283.15 K, x1 = 0.4099 | 722.208 ± 0.59 | –
283.15 K, x1 = 0.4995 | – | 0.501 ± 0.009
283.15 K, x1 = 0.5053 | 725.756 ± 0.58 | –
283.15 K, x1 = 0.6005 | 729.573 ± 0.58 | –
283.15 K, x1 = 0.6099 | – | 0.483 ± 0.009
283.15 K, x1 = 0.6934 | 733.719 ± 0.58 | –
283.15 K, x1 = 0.7072 | – | 0.462 ± 0.009
283.15 K, x1 = 0.7967 | 738.766 ± 0.57 | –
283.15 K, x1 = 0.7981 | – | 0.435 ± 0.009
283.15 K, x1 = 0.8941 | – | 0.417 ± 0.009
283.15 K, x1 = 0.8975 | 744.471 ± 0.57 | –
288.15 K, x1 = 0.1019 | – | 0.559 ± 0.009
288.15 K, x1 = 0.1059 | 708.972 ± 0.61 | –
288.15 K, x1 = 0.2123 | 711.779 ± 0.6 | –
288.15 K, x1 = 0.2189 | – | 0.533 ± 0.009
288.15 K, x1 = 0.3019 | 714.403 ± 0.6 | –
288.15 K, x1 = 0.3026 | – | 0.514 ± 0.009
288.15 K, x1 = 0.4029 | – | 0.492 ± 0.009
288.15 K, x1 = 0.4099 | 717.859 ± 0.59 | –
288.15 K, x1 = 0.4995 | – | 0.471 ± 0.009
288.15 K, x1 = 0.5053 | 721.306 ± 0.59 | –
288.15 K, x1 = 0.6005 | 725.009 ± 0.58 | –
288.15 K, x1 = 0.6099 | – | 0.454 ± 0.009
288.15 K, x1 = 0.6934 | 729.044 ± 0.58 | –
288.15 K, x1 = 0.7072 | – | 0.435 ± 0.009
288.15 K, x1 = 0.7967 | 733.942 ± 0.58 | –
288.15 K, x1 = 0.7981 | – | 0.41 ± 0.009
288.15 K, x1 = 0.8941 | – | 0.393 ± 0.008
288.15 K, x1 = 0.8975 | 739.489 ± 0.58 | –
293.15 K, x1 = 0.1019 | – | 0.525 ± 0.009
293.15 K, x1 = 0.1059 | 704.884 ± 0.62 | –
293.15 K, x1 = 0.2123 | 707.601 ± 0.61 | –
293.15 K, x1 = 0.2189 | – | 0.501 ± 0.009
293.15 K, x1 = 0.3019 | 710.139 ± 0.61 | –
293.15 K, x1 = 0.3026 | – | 0.483 ± 0.009
293.15 K, x1 = 0.4029 | – | 0.464 ± 0.009
293.15 K, x1 = 0.4099 | 713.488 ± 0.6 | –
293.15 K, x1 = 0.4995 | – | 0.445 ± 0.009
293.15 K, x1 = 0.5053 | 716.833 ± 0.59 | –
293.15 K, x1 = 0.6005 | 720.419 ± 0.59 | –
293.15 K, x1 = 0.6099 | – | 0.428 ± 0.009
293.15 K, x1 = 0.6934 | 724.332 ± 0.59 | –
293.15 K, x1 = 0.7072 | – | 0.411 ± 0.009
293.15 K, x1 = 0.7967 | 729.066 ± 0.58 | –
293.15 K, x1 = 0.7981 | – | 0.388 ± 0.008
293.15 K, x1 = 0.8941 | – | 0.372 ± 0.008
293.15 K, x1 = 0.8975 | 734.467 ± 0.58 | –
298.15 K, x1 = 0.1019 | – | 0.495 ± 0.009
298.15 K, x1 = 0.1059 | 700.768 ± 0.62 | –
298.15 K, x1 = 0.2123 | 703.393 ± 0.62 | –
298.15 K, x1 = 0.2189 | – | 0.473 ± 0.009
298.15 K, x1 = 0.3019 | 705.856 ± 0.61 | –
298.15 K, x1 = 0.3026 | – | 0.455 ± 0.009
298.15 K, x1 = 0.4029 | – | 0.439 ± 0.009
298.15 K, x1 = 0.4099 | 709.092 ± 0.6 | –
298.15 K, x1 = 0.4995 | – | 0.42 ± 0.009
298.15 K, x1 = 0.5053 | 712.324 ± 0.6 | –
298.15 K, x1 = 0.6005 | 715.799 ± 0.59 | –
298.15 K, x1 = 0.6099 | – | 0.405 ± 0.009
298.15 K, x1 = 0.6934 | 719.586 ± 0.59 | –
298.15 K, x1 = 0.7072 | – | 0.388 ± 0.008
298.15 K, x1 = 0.7967 | 724.172 ± 0.59 | –
298.15 K, x1 = 0.7981 | – | 0.367 ± 0.008
